Data as given in patent publication US20160108027A1, “SUBSTITUTED BENZOXAZOLES” (BAYER PHARMA AKTIENGESELLSCHAFT, priority 2013, published 2016).
pIC50: −log10 of the molar value.

Key:
[1] = target: T1, thrombin (Homo sapiens, UniProt P00734); test: Measurement of the thrombin inhibition in buffer; format: biochemical; conditions: human thrombin 0.06 nmol/l in Tris buffer pH 7.4, 22° C., substrate Boc-Asp(OBzl)-Pro-Arg-AMC; in some cases means of individual determinations
How it was run: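 Compound pre-incubated 15 min at 22° C with 0.06 nmol/l human thrombin in 50 mmol/l Tris, 100 mmol/l NaCl, 0.1% BSA, pH 7.4, then 5 μmol/l Boc-Asp(OBzl)-Pro-Arg-AMC added for 30 min. AMC fluorescence read at 360/460 nm against DMSO controls; IC50 from concentration–activity curves.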

[2] = target: T1, thrombin; test: Determination of the thrombin-inhibitory activity in plasma samples (ecarin-activated); format: biochemical; conditions: citrate plasma, ecarin activation, fluorogenic thrombin substrate; in some cases means of individual determinations
How it was run: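 Citrate plasma activated with ecarin (final 20 mU per reaction) in Ca buffer (Hepes, NaCl, CaCl2, PEG), with compound diluted from DMSO into water. Fluorogenic thrombin substrate at final 50 μmol/l; fluorescence (ex 360/em 465 nm) read each minute for 20 minutes, with buffer-only unstimulated control.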

Compound	pIC50 [1]	pIC50 [2]
[2H]C([2H])(C)O[C@@H]1CC(CO)N(C(=O)c2cc(OC)c3oc(NC(C)c4cc(Cl)ccn4)nc3c2)C1 (stereo partly drawn) [Example 97, (2-{[1-(4-Chloropyridin-2-yl)ethyl]amino}-7-methoxy-1,3-benzoxazol-5-yl)[(4R)-4-[(1,1-^2H2)ethyloxy]-2-(hydroxymethyl)pyrrolidin-1-yl]methanone]	7.77	7.57
CCC1C(=O)N2CCC2CN1C(=O)c1cc(OC)c2oc(NCc3cc(Cl)ccn3)nc2c1 (stereo not shown) [Example 73, 4-[(2-{[(4-Chloropyridin-2-yl)methyl]amino}-7-methoxy-1,3-benzoxazol-5-yl)carbonyl]-3-ethyl-1,4-diazabicyclo[4.2.0]octan-2-one]	7.29	7.30
COc1cc(C(=O)N2CC(C)OCC2C2CC(O)C2)cc2nc(NCc3cc(Cl)ccn3)oc12 (single isomer, unassigned) [Example 51, (2-{[(4-Chloropyridin-2-yl)methyl]amino}-7-methoxy-1,3-benzoxazol-5-yl) [5-(3-hydroxycyclobutyl)-2-methylmorpholin-4-yl]methanone]	8.10	7.77

Continued, values first:

pIC50 [1]	pIC50 [2]	Compound
7.62	7.39	COc1cc(C(=O)N2CC(C)OCC2(C)C)cc2nc(NCc3cc(Cl)ccn3)oc12 (single isomer, unassigned) [Example 45, (2-{[(4-Chloropyridin-2-yl)methyl]amino}-7-methoxy-1,3-benzoxazol-5-yl)(2,5,5-trimethylmorpholin-4-yl)methanone]
8.30	7.15	COc1cc(C(=O)N2CC(C)(CC(C)O)OCC2(C)C)cc2nc(NCc3cc(Cl)ccn3)oc12 (single isomer, unassigned) [Example 35, (2-{[(4-Chloropyridin-2-yl)methyl]amino}-7-methoxy-1,3-benzoxazol-5-yl) [2-(2-hydroxypropyl)-2,5,5-trimethylmorpholin-4-yl]methanone]
